This experiment addresses T1, GPR40 (Homo sapiens, UniProt O14842).
T1 construct: expressed in transfected cells
Kind of experiment: IP1 accumulation assay (Cisbio IP-One HTRF) in HEK293 cells stably expressing GPR40. Type of experiment: cell-based. The conditions noted are these: HEK293 cells stably expressing GPR40, 37° C. for 2 hours, % Effect relative to AMG-1638 positive control. As to the method:
IP1 accumulation assay was used to evaluate the potency of compounds. HEK293 cells stably expressing GPR40 were cultured in 5% CO2 incubator (ThermoFisher) in maintenance media (Dulbecco's modified Eagle's medium with 4.5 g/L of glucose, 10% fetal bovine serum, 100 μg/mL Hygromycin, and Penicillin (100 U/mL)/Streptomycin (100 μg/mL)) till 100% confluency. Cells were harvested freshly, spun down at 300×g for 5 min, and resuspended in pre-warmed 1× stimulant buffer from Cisbio IP-One HTRF Detection kit (Cisbio). Cell density was adjusted to 2.0×10^6 cells/mL. DMSO was used as blank control and AMG-1638 (CAS #: 1142214-62-7) as positive control. Compounds were prepared at 10 mM in DMSO and 5 nL of 3× serially diluted compounds (10 concentrations) were added to each well of the 384-LDV assay plate (Corning) by using ECHO 550 (Labcyte). Five μL of cells in suspension were transferred into each well by using Multidrop Combi Reagent Dispenser (ThermoFisher). Assay plate was then sealed and incubated at 37° C. for 2 hours. IP-d2 reagent and anti-IP1 reagent were prepared following the manual (Cisbio). Five μL of IP1-d2 and then 5 μL of anti-IP1 antibody was added to each well sequentially. Assay plate was incubated at room temperature for 60 min and then read at 665 nm/615 nm on an Envision plate reader (PerkinElmer). The ratio of values obtained at 665 nm and 615 nm was used for calculation of IP1 accumulation: % Effect=(Ratiosample−Ratioblank)/(RatioAMG-1638−Ratioblank)×100. Dose curve was fitted and EC50 of each compound was calculated by using XLFit.

T1 sequence (O14842 whole entry): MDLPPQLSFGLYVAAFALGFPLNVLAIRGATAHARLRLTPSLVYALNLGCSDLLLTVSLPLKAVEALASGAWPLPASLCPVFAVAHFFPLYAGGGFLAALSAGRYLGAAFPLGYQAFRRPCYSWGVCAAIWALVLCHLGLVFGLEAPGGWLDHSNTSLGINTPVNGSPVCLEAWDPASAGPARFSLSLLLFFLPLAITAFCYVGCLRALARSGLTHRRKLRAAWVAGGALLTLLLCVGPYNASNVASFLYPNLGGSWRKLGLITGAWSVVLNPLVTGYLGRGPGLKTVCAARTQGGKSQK

For orientation: EC50 means the concentration that produces a half-maximal response. For “(2S,2'S,3R,3′R)-3,3′-((2R,2′R)-2,2′-(1,1′-(((1,1′-(26-(2-(bis(3-((2-aminoethyl)amino)-3-oxopropyl)amino) ethyl)-18,23,29,34-tetraoxo-19,22,26,30,33-pentaazahenpentacontane-1,51-diyl)bis(1H-1,2,3-triazole-4,1-diyl))bis(2-(trifluoromethoxy)-5,1-phenylene))bis(methylene))bis (piperidine-4,1-diyl))bis(chroman-7,2-diyl))bis(3-cyclopropyl-2-methylpropanoic acid) [compound 203]”, the EC50 was in the range of 0.05 to 0.25 µM.

For the origin of these results see US20240002354A1, “ANTIDIABETIC COMPOUNDS AND COMPOSITIONS” (REZUBIO PHARMACEUTICALS CO., LTD, priority 2020, published 2024).
